This passage reports IC50 results from ChEMBL document CHEMBL6134819, “Discovery of novel tranylcypromine-indazole-based derivatives as LSD1 inhibitors for acute myeloid leukemia treatment” (Eur J Med Chem, 2025).

The test system of one test is HL-60. The test is described as follows: Antiproliferative activity against human HL-60 cells assessed as inhibition of cell growth measured after 7 days by cell-titer glo assay. The test is classed as functional, cell-based. Particulars: HL-60, 168 h.
Test [1] deals with Lysine-specific histone demethylase 1A (Homo sapiens, UniProt O60341). The test is described as follows: Inhibition of human recombinant LSD1 (852 residues) incubated for 1 hr by HTRF method. (Time-resolved FRET reads energy transfer from a long-lived donor to a nearby acceptor.)
A further test deals with MV4-11. The test is described as follows: Antiproliferative activity against human MV4-11 cells assessed as inhibition of cell growth measured after 7 days by cell-titer glo assay. The test is classed as functional, cell-based. The following applies: MV4-11, 168 h.
The test system of another test is THP-1. The test is described as follows: Antiproliferative activity against human THP-1 cells assessed as inhibition of cell growth measured after 7 days by cell-titer glo assay. The following applies: THP-1, 168 h. It counts as functional, cell-based.
Test [2] has as its target Voltage-gated inwardly rectifying potassium channel KCNH2 (Homo sapiens, UniProt Q12809). The test is described as follows: Inhibition of human ERG by whole cell patch clamp assay. It counts as toxicity. Background: In patch-clamp work, channel activity is measured electrically.

Voltage-gated inwardly rectifying potassium channel KCNH2, sequence (Q12809 whole entry): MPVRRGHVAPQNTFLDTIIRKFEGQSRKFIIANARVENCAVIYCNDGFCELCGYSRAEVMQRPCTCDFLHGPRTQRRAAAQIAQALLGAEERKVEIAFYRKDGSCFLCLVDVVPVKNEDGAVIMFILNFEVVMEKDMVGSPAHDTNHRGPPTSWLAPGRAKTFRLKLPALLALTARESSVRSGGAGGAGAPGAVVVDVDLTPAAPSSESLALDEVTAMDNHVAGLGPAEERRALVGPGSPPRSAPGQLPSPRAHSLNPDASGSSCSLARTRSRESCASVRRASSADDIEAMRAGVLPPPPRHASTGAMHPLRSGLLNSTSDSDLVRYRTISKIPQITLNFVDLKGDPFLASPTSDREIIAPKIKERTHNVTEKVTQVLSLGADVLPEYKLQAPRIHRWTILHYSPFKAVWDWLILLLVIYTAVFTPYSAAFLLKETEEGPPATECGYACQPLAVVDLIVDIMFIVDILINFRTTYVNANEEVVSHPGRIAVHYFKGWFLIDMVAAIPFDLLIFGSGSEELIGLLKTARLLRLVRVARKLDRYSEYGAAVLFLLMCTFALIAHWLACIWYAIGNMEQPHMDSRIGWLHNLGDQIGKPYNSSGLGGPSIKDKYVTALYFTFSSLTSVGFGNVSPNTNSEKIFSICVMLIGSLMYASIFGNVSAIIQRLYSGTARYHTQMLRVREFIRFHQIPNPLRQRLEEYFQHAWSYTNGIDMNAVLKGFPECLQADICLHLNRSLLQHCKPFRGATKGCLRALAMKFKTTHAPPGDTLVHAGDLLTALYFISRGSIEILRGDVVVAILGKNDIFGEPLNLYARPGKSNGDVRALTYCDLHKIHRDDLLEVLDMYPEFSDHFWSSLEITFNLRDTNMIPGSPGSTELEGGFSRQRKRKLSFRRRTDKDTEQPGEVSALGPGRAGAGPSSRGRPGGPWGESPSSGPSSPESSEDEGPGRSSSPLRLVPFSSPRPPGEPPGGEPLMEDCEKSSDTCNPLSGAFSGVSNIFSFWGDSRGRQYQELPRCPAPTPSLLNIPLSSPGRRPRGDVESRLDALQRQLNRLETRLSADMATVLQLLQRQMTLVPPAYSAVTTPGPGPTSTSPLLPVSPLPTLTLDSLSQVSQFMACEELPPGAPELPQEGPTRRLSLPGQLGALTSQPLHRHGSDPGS

On to `O=S(=O)(C1CCCCC1)n1ncc2cc(-n3cc(CN[C@@H]4C[C@H]4c4ccc(F)c(F)c4)nn3)ccc21`, for which the half-inhibitory concentration (IC50) – broadly, the point on the concentration scale where inhibition reaches its midpoint – turned out to be 1.88 µM in the test on HL-60, 0.00482 µM in test [1], 4.33 µM in the test on MV4-11 and 2.41 µM in the test with THP-1.
For the molecule `Fc1ccc([C@@H]2C[C@H]2NCc2cn(-c3cc4cn[nH]c4cc3F)nn2)cc1F`, the IC50 was 7.44 µM in the test on HL-60, 0.00645 µM in test [1], 6.86 µM in the test on MV4-11 and 7.5 µM in the test with THP-1.
On to `O=C(c1ccccc1)n1ncc2cc(-n3cc(CN[C@@H]4C[C@H]4c4ccc(F)c(F)c4)nn3)ccc21`, for which the IC50 in the test on HL-60 turned out to be 2.81 µM; in test [1], 0.00755 µM; in the test with MV4-11, 6.3 µM; in the test on THP-1, 12.9 µM.
Consider `Fc1ccc([C@@H]2C[C@H]2NCc2cn(-c3ccc4c(cnn4C4CCCC4)c3)nn2)cc1F`, for which the IC50 with HL-60 was found to be 4.05 µM; in test [1], 0.00414 µM; in the test with MV4-11 it was 2.86 µM; in the test on THP-1, 3.88 µM.
Regarding `CS(=O)(=O)n1ncc2cc(-n3cc(CN[C@@H]4C[C@H]4c4ccc(F)c(F)c4)nn3)ccc21`, the IC50 came out at 2.41 µM in the test on HL-60, 0.0146 µM in test [1], 3.31 µM in the test on MV4-11 and 24.3 µM in the test with THP-1.
In the same order, the values of `O=C(C1CC1)n1ncc2cc(-n3cc(CN[C@@H]4C[C@H]4c4ccc(F)c(F)c4)nn3)ccc21` are 5.5 µM, 0.0123 µM, 2.61 µM and 5.94 µM.
In the same order, the values of `CCS(=O)(=O)n1ncc2cc(-n3cc(CN[C@@H]4C[C@H]4c4ccc(F)c(F)c4)nn3)ccc21` are 6.81 µM, 0.00777 µM, 11.5 µM and 4.59 µM.
On to `Fc1ccc([C@@H]2C[C@H]2NCc2cn(-c3cnc4[nH]ncc4c3)nn2)cc1F`, for which the IC50 in test [1] was 0.0209 µM.
On to `CCn1ncc2cc(-n3cc(CN[C@@H]4C[C@H]4c4ccc(F)c(F)c4)nn3)ccc21`, for which the IC50 worked out at 7.83 µM in the test on HL-60, 0.0038 µM in test [1], 3.52 µM in the test with MV4-11 and 6.52 µM with THP-1.
In the same order, the values of `Fc1ccc([C@@H]2C[C@H]2NCc2cn(-c3ccc4c(cnn4CC(F)(F)F)c3)nn2)cc1F` are 1.86 µM, 0.00159 µM, 10.9 µM and 5.01 µM.
In the case of `CCC(=O)n1ncc2cc(-n3cc(CN[C@@H]4C[C@H]4c4ccc(F)c(F)c4)nn3)ccc21`, the IC50 stood at 1.53 µM with HL-60, 0.0116 µM in test [1], 2.56 µM with MV4-11 and 7.29 µM with THP-1.
Regarding `O=C(Cc1ccccc1)n1ncc2cc(-n3cc(CN[C@@H]4C[C@H]4c4ccc(F)c(F)c4)nn3)ccc21`, the IC50 amounted to 2.83 µM with HL-60, 0.0156 µM in test [1], 7.84 µM with MV4-11 and 8.32 µM in the test with THP-1.
In the same order, the values of `Fc1ccc([C@@H]2C[C@H]2NCc2cn(-c3n[nH]c4ccccc34)nn2)cc1F` are more than 25 µM, 0.0051 µM, more than 25 µM and more than 25 µM.
In the same order, the values of `COc1cc2[nH]ncc2cc1-n1cc(CN[C@@H]2C[C@H]2c2ccc(F)c(F)c2)nn1` are 10.9 µM, 0.00346 µM, 8.74 µM and 12.6 µM.
The like results for `O=C(C1CCCC1)n1ncc2cc(-n3cc(CN[C@@H]4C[C@H]4c4ccc(F)c(F)c4)nn3)ccc21` were, in that order, 3.44 µM, 0.012 µM, 8.25 µM and 8.37 µM.
`Fc1ccc([C@@H]2C[C@H]2NCc2cn(-c3ccc4c(cnn4Cc4ccccc4)c3)nn2)cc1F`: the IC50 in the test on HL-60 was 3.83 µM; in test [1] it was 0.00828 µM; in the test on MV4-11, 4.08 µM; in the test on THP-1, 1.67 µM.
The like results for `Fc1ccc([C@@H]2C[C@H]2NCc2cn(-c3ccc4cn[nH]c4c3)nn2)cc1F` were, in that order, more than 25 µM, 0.0144 µM, more than 25 µM and 3.76 µM.
The like results for `Fc1ccc([C@@H]2C[C@H]2NCc2cn(-c3cccc4[nH]ncc34)nn2)cc1F` were, in that order, 15.5 µM, 0.00663 µM, 12.5 µM and 3.95 µM.
Turning to `CC(=O)n1ncc2cc(-n3cc(CN[C@@H]4C[C@H]4c4ccc(F)c(F)c4)nn3)ccc21`, the IC50 in the test on HL-60 was 4.22 µM; in test [1], 0.0084 µM; with MV4-11, 3.87 µM; with THP-1, 5.4 µM.
In the same order, the values of `Cn1ncc2cc(-n3cc(CN[C@@H]4C[C@H]4c4ccc(F)c(F)c4)nn3)ccc21` are 2.49 µM, 0.00462 µM, 17.1 µM and 4.52 µM.
On to `O=C(C1CCC1)n1ncc2cc(-n3cc(CN[C@@H]4C[C@H]4c4ccc(F)c(F)c4)nn3)ccc21`, for which the IC50 in the test on HL-60 amounted to 6.12 µM; in test [1], 0.0155 µM; with MV4-11 it was 5.51 µM; in the test with THP-1 it was 10.9 µM.
The like results for `Cc1cc2[nH]ncc2cc1-n1cc(CN[C@@H]2C[C@H]2c2ccc(F)c(F)c2)nn1` were, in that order, 4.11 µM, 0.0111 µM, 6.28 µM and 5.7 µM.
As to `Fc1ccc([C@@H]2C[C@H]2NCc2cn(CCc3ccc4[nH]ncc4c3)nn2)cc1F`, the IC50 in test [1] was determined as 0.0579 µM.
Regarding `O=C(C1CCCCC1)n1ncc2cc(-n3cc(CN[C@@H]4C[C@H]4c4ccc(F)c(F)c4)nn3)ccc21`, the IC50 with HL-60 came to 3 µM; in test [1] it was 0.0159 µM; in the test on MV4-11 it was 9.67 µM; with THP-1, 5.57 µM.
In the same order, the values of `CC(C)C(=O)n1ncc2cc(-n3cc(CN[C@@H]4C[C@H]4c4ccc(F)c(F)c4)nn3)ccc21` are 3.42 µM, 0.00997 µM, 3.89 µM and 3.59 µM.
The like results for `O=S(=O)(C1CC1)n1ncc2cc(-n3cc(CN[C@@H]4C[C@H]4c4ccc(F)c(F)c4)nn3)ccc21` were, in that order, 5.57 µM, 0.0043 µM, 6.32 µM and 3.39 µM.
Consider `Fc1ccc([C@@H]2C[C@H]2NCc2cn(-c3ccc4[nH]ncc4c3)nn2)cc1F`, for which, in test [2], the IC50 worked out at 0.61 µM.
Turning to `Fc1ccc([C@@H]2C[C@H]2NCc2cn(Cc3ccc4[nH]ncc4c3)nn2)cc1F`, the IC50 was found to be 2.47 µM with HL-60, 0.0115 µM in test [1], 6.56 µM with MV4-11 and 6.34 µM in the test on THP-1.
